Measurements: ChEMBL document CHEMBL1201862, “PubChem BioAssay data set” (2004)
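Each compound was tested at five concentrations against cells in 96-well plates for 48 hours. GI50 = concentration required for 50% inhibition of growth.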 The source made the active and inactive calls. Rule as the data show it: active = GI50 up to about 1.1 µM and inactive = higher.

Tests used:
Assay in all cases: NCI tumour cell line growth inhibition, 48 h
K562 = tested on: K562
SF-268 = tested on: SF-268
SF-539 = tested on: SF-539
UACC-257 = tested on: UACC-257
NCI-H460 = tested on: NCI-H460
NCI-H522 = tested on: NCI-H522
HOP-18 = tested on: HOP-18
M19-MEL = tested on: M19-MEL
NCI-H226 = tested on: NCI-H226
MOLT-4 = tested on: MOLT-4
DMS-273 = tested on: DMS-273
CAKI-1 = tested on: CAKI-1
SN12C = tested on: SN12C
DMS-114 = tested on: DMS-114
Malme-3M = tested on: Malme-3M
A498 = tested on: A498
A549 = tested on: A549
HCT-15 = tested on: HCT-15
IGROV-1 = tested on: IGROV-1
RPMI-8226 = tested on: RPMI-8226
SW-620 = tested on: SW-620
NCI-H23 = tested on: NCI-H23
LOX IMVI = tested on: LOX IMVI
HCC 2998 = tested on: HCC 2998
UO-31 = tested on: UO-31
SK-OV-3 = tested on: SK-OV-3
KM-20L2 = tested on: KM-20L2
MCF7 = tested on: MCF7
COLO 205 = tested on: COLO 205
OVCAR-4 = tested on: OVCAR-4
HCT-116 = tested on: HCT-116
RXF 393 = tested on: RXF 393
HOP-92 = tested on: HOP-92
SNB-19 = tested on: SNB-19
HOP-62 = tested on: HOP-62
SK-MEL-5 = tested on: SK-MEL-5
SNB-78 = tested on: SNB-78
OVCAR-8 = tested on: OVCAR-8
OVCAR-3 = tested on: OVCAR-3
U-251 = tested on: U-251
OVCAR-5 = tested on: OVCAR-5
SK-MEL-2 = tested on: SK-MEL-2
HT-29 = tested on: HT-29
KM12 = tested on: KM12
SF-295 = tested on: SF-295
HL-60 = tested on: HL-60
SK-MEL-28 = tested on: SK-MEL-28
EKVX = tested on: EKVX
SNB-75 = tested on: SNB-75
UACC-62 = tested on: UACC-62
NCI/ADR-RES = tested on: NCI/ADR-RES
CCRF-CEM = tested on: CCRF-CEM
DLD-1 = tested on: DLD-1
TK-10 = tested on: TK-10
ACHN = tested on: ACHN
SR = tested on: SR
M14 = tested on: M14
LXFL 529 = tested on: LXFL 529
786-0 = tested on: 786-0

SMILES: O=C1Nc2ccccc2Nc2ccncc21
- GI50 (K562): > 100 µM (inactive)
- GI50 (SF-268): > 100 µM (inactive)
- GI50 (SF-539): > 100 µM (inactive)
- GI50 (UACC-257): > 100 µM (inactive)
- GI50 (NCI-H460): > 100 µM (inactive)
- GI50 (NCI-H522): > 100 µM (inactive)
- GI50 (HOP-18): > 100 µM (inactive)
- GI50 (M19-MEL): > 100 µM (inactive)
- GI50 (NCI-H226): > 100 µM (inactive)
- GI50 (MOLT-4): > 100 µM (inactive)
- GI50 (DMS-273): > 100 µM (inactive)
- GI50 (CAKI-1): > 100 µM (inactive)
- GI50 (SN12C): > 31.6 µM (inactive)
- GI50 (DMS-114): > 100 µM (inactive)
- GI50 (Malme-3M): > 100 µM (inactive)
- GI50 (A498): > 100 µM (inactive)
- GI50 (A549): > 100 µM (inactive)
- GI50 (HCT-15): > 100 µM
- GI50 (IGROV-1): > 100 µM (inactive)
- GI50 (RPMI-8226): > 100 µM (inactive)
- GI50 (SW-620): > 100 µM (inactive)
- GI50 (NCI-H23): > 100 µM (inactive)
- GI50 (LOX IMVI): > 100 µM (inactive)
- GI50 (HCC 2998): > 100 µM (inactive)
- GI50 (UO-31): > 100 µM (inactive)
- GI50 (SK-OV-3): > 100 µM (inactive)
- GI50 (KM-20L2): > 100 µM (inactive)
- GI50 (MCF7): > 100 µM (inactive)
- GI50 (COLO 205): > 100 µM (inactive)
- GI50 (OVCAR-4): > 100 µM (inactive)
- GI50 (HCT-116): > 100 µM (inactive)
- GI50 (RXF 393): > 100 µM (inactive)
- GI50 (HOP-92): > 100 µM (inactive)
- GI50 (SNB-19): > 100 µM (inactive)
- GI50 (HOP-62): > 100 µM (inactive)
- GI50 (SK-MEL-5): > 100 µM (inactive)
- GI50 (SNB-78): > 100 µM (inactive)
- GI50 (OVCAR-8): > 100 µM (inactive)
- GI50 (OVCAR-3): > 100 µM (inactive)
- GI50 (U-251): > 100 µM (inactive)
- GI50 (OVCAR-5): > 100 µM (inactive)
- GI50 (SK-MEL-2): > 100 µM (inactive)
- GI50 (HT-29): > 100 µM (inactive)
- GI50 (KM12): > 100 µM (inactive)
- GI50 (SF-295): > 100 µM (inactive)
- GI50 (HL-60): > 100 µM (inactive)
- GI50 (SK-MEL-28): > 100 µM (inactive)
- GI50 (EKVX): > 100 µM (inactive)
- GI50 (SNB-75): > 76 µM (inactive)
- GI50 (UACC-62): > 100 µM (inactive)
- GI50 (NCI/ADR-RES): > 100 µM (inactive)
- GI50 (CCRF-CEM): > 100 µM (inactive)
- GI50 (DLD-1): > 100 µM (inactive)

SMILES: CN1C(=O)CN2C(Cl)(Cl)C2(c2ccccc2)c2cc(Cl)ccc21 (stereo not drawn)
- GI50 (K562): 69.2 µM (inactive)
- GI50 (SF-268): > 100 µM (inactive)
- GI50 (UACC-257): 55.1 µM (inactive)
- GI50 (NCI-H460): 96.2 µM (inactive)
- GI50 (NCI-H522): 31.3 µM (inactive)
- GI50 (M19-MEL): > 100 µM (inactive)
- GI50 (NCI-H226): > 100 µM (inactive)
- GI50 (MOLT-4): 26.9 µM (inactive)
- GI50 (DMS-273): 87.7 µM (inactive)
- GI50 (CAKI-1): > 100 µM (inactive)
- GI50 (SN12C): > 100 µM (inactive)
- GI50 (DMS-114): > 100 µM (inactive)
- GI50 (Malme-3M): > 100 µM (inactive)
- GI50 (HCT-15): > 100 µM
- GI50 (IGROV-1): > 100 µM (inactive)
- GI50 (RPMI-8226): > 100 µM (inactive)
- GI50 (SW-620): > 100 µM (inactive)
- GI50 (NCI-H23): 89.1 µM (inactive)
- GI50 (LOX IMVI): > 100 µM (inactive)
- GI50 (HCC 2998): 65.3 µM (inactive)
- GI50 (UO-31): > 100 µM (inactive)
- GI50 (TK-10): > 100 µM (inactive)
- GI50 (SK-OV-3): > 100 µM (inactive)
- GI50 (KM-20L2): > 100 µM (inactive)
- GI50 (COLO 205): > 100 µM (inactive)
- GI50 (ACHN): > 100 µM (inactive)
- GI50 (OVCAR-4): > 100 µM (inactive)
- GI50 (SR): > 10 µM (inactive)
- GI50 (HCT-116): 65.3 µM (inactive)
- GI50 (RXF 393): > 100 µM (inactive)
- GI50 (HOP-92): 13.5 µM (inactive)
- GI50 (HOP-62): > 100 µM (inactive)
- GI50 (SK-MEL-5): > 100 µM (inactive)
- GI50 (OVCAR-8): > 100 µM (inactive)
- GI50 (OVCAR-3): > 100 µM (inactive)
- GI50 (U-251): > 100 µM (inactive)
- GI50 (OVCAR-5): > 100 µM (inactive)
- GI50 (SK-MEL-2): > 100 µM (inactive)
- GI50 (M14): > 100 µM (inactive)
- GI50 (LXFL 529): > 100 µM (inactive)
- GI50 (HT-29): 67.5 µM (inactive)
- GI50 (KM12): 56.5 µM (inactive)
- GI50 (SF-295): 27 µM (inactive)
- GI50 (SK-MEL-28): > 100 µM (inactive)
- GI50 (EKVX): 65.8 µM (inactive)
- GI50 (UACC-62): > 100 µM (inactive)
- GI50 (CCRF-CEM): 53.7 µM (inactive)
- GI50 (DLD-1): 93.5 µM (inactive)

SMILES: N/N=C1\C(=O)N(C2CCCCCC2)C(=O)C1C(=O)NC1CCCCCC1 (stereo not drawn)
- GI50 (K562): 30.3 µM (inactive)
- GI50 (SF-268): 36.9 µM (inactive)
- GI50 (SF-539): 24.7 µM (inactive)
- GI50 (UACC-257): 55.3 µM (inactive)
- GI50 (NCI-H460): 42.7 µM (inactive)
- GI50 (NCI-H522): 23.2 µM (inactive)
- GI50 (HOP-18): 31 µM (inactive)
- GI50 (M19-MEL): 37.9 µM (inactive)
- GI50 (MOLT-4): 22 µM (inactive)
- GI50 (786-0): 29.6 µM (inactive)
- GI50 (SN12C): 27.9 µM (inactive)
- GI50 (Malme-3M): 24.7 µM (inactive)
- GI50 (A498): 38 µM (inactive)
- GI50 (A549): 49.1 µM (inactive)
- GI50 (HCT-15): 30 µM
- GI50 (IGROV-1): 38 µM (inactive)
- GI50 (SW-620): 28.3 µM (inactive)
- GI50 (NCI-H23): 22.4 µM (inactive)
- GI50 (HCC 2998): 25.6 µM (inactive)
- GI50 (UO-31): 20.3 µM (inactive)
- GI50 (TK-10): > 10 µM (inactive)
- GI50 (KM-20L2): 19.5 µM (inactive)
- GI50 (COLO 205): 35.1 µM (inactive)
- GI50 (ACHN): 42.2 µM (inactive)
- GI50 (OVCAR-4): 28.3 µM (inactive)
- GI50 (RXF 393): 40 µM (inactive)
- GI50 (HOP-92): 21.3 µM (inactive)
- GI50 (SNB-19): 35.6 µM (inactive)
- GI50 (HOP-62): > 10 µM (inactive)
- GI50 (SK-MEL-5): 17.1 µM (inactive)
- GI50 (SNB-78): 21.8 µM (inactive)
- GI50 (OVCAR-8): 39.3 µM (inactive)
- GI50 (OVCAR-3): 32.4 µM (inactive)
- GI50 (U-251): 15.8 µM (inactive)
- GI50 (OVCAR-5): 39.3 µM (inactive)
- GI50 (SK-MEL-2): 19.1 µM (inactive)
- GI50 (M14): 35 µM (inactive)
- GI50 (LXFL 529): 22.8 µM (inactive)
- GI50 (HT-29): 32.1 µM (inactive)
- GI50 (KM12): 39.5 µM (inactive)
- GI50 (SF-295): 45.2 µM (inactive)
- GI50 (HL-60): 19.8 µM (inactive)
- GI50 (SK-MEL-28): > 10 µM (inactive)
- GI50 (EKVX): 32.7 µM (inactive)
- GI50 (UACC-62): 18.8 µM (inactive)
- GI50 (CCRF-CEM): 25.4 µM (inactive)
- GI50 (DLD-1): 41.5 µM (inactive)
